{
  "source": "patent US4146624A",
  "about": "“Method of treating viruses with bis-basic ketones of dibenzofuran” (Richardson-Merrell Inc., priority 1970, dated 1979)",
  "tested_on": "Encephalomyocarditis",
  "assay": "in vivo antiviral study, mice challenged subcutaneously with encephalomyocarditis virus",
  "conditions": "observation 9 days",
  "experimental": "Examples 25 to 36 illustrate in vivo antiviral studies with compounds, also referred to as active ingredients, of this invention. In each of the examples the compounds were antivirally active. […] The dosage levels of the compounds used in the examples were within the range of 10 to 250 mg. per kg. of animal body weight for each time the compound was administered.\nTable A lists the active ingredient which was administered in each of the examples. Although it is believed that the headings in the examples are self-explanatory, some of the headings are explained as follows. The \"challenge,\" that is, the inoculation with a virus used is generally fatal to all the untreated, that is, control animals in the experiment. \"Time of death\" refers to the average time of death for the untreated animals. The \"Treatment\" was prophylactic or therapeutic or both. The term \"volume\" refers to the volume of composition administered per dose which contained the active ingredient dissolved in sterile water which also contained 0.15% of hydroxyethylcellulose.",
  "key": {"[1]": {"conditions": "prophylactic, 250 mg/kg oral, 22 hrs. pre-challenge, challenge 6 LD50"}, "[2]": {"conditions": "Proph. & Therap., 50 mg/kg subcutaneous, 28,22,2 hrs. pre- and 2 hrs. post-challenge, challenge 10 LD50"}},
  "note": "Where a name gives a salt, the structure may show the parent alone.",
  "data": [
    {"smiles": "O=C(CCCN1CCCCC1)c1ccc2oc3ccc(C(=O)CCCN4CCCCC4)cc3c2c1", "note": "[Example 25, 2,8-bis-(4-piperidinobutyryl)dibenzofuran]", "values": [
      {"measurement": "antiviral activity", "setting": "prophylactic, 50 mg/kg subcutaneous, 28,22,2 hrs. pre-challenge, challenge 6 LD50", "result": "Yes"},
      {"measurement": "antiviral activity", "setting": "[1]", "result": "Yes"}
    ]},
    {"smiles": "O=C(CN1CCCCC1)c1ccc2oc3ccc(C(=O)CN4CCCCC4)cc3c2c1", "note": "[Example 31, 2,8-bis-(piperidinoacetyl)dibenzofuran]", "values": [
      {"measurement": "antiviral activity", "setting": "Proph. & Therap., 250 mg/kg subcutaneous, 28,22,2 hrs. pre- and 2 hrs. post-challenge, challenge 32 LD50", "result": "Yes"},
      {"measurement": "antiviral activity", "setting": "prophylactic, 250 mg/kg oral, 22 hrs. pre-challenge, challenge 32 LD50", "result": "Yes"}
    ]},
    {"smiles": "O=C(CCCN1CCC(Cc2ccccc2)CC1)c1ccc2oc3ccc(C(=O)CCCN4CCC(Cc5ccccc5)CC4)cc3c2c1", "note": "[Example 29, 2,8-bis-[4-(4-benzylpiperidino)butyryl]dibenzofuran]", "values": [
      {"measurement": "antiviral activity", "setting": "Proph. & Therap., 10 mg/kg subcutaneous, 28,22,2 hrs. pre- and 2 hrs. post-challenge, challenge 18 LD50", "result": "Yes"}
    ]},
    {"smiles": "CC1CCN(CCCC(=O)c2ccc3oc4ccc(C(=O)CCCN5CCC(C)CC5)cc4c3c2)CC1", "note": "[Example 27, 2,8-bis-[4-(4-methylpiperidino)butyryl]dibenzofuran]", "values": [
      {"measurement": "antiviral activity", "setting": "Proph. & Therap., 10 mg/kg subcutaneous, 28,22,2 hrs. pre- and 2 hrs. post-challenge, challenge 6 LD50", "result": "Yes"},
      {"measurement": "antiviral activity", "setting": "[1]", "result": "Yes"}
    ]},
    {"smiles": "CN(C)CC(=O)c1ccc2oc3ccc(C(=O)CN(C)C)cc3c2c1.Cl.Cl.O.O", "note": "[Example 35, 2,8-bis-[2-(dimethylamino)acetyl]dibenzofuran dihydrochloride dihydrate]", "values": [
      {"measurement": "antiviral activity", "setting": "Proph. & Therap., 50 mg/kg oral, 28,22,2 hrs. pre- and 2 hrs. post-challenge, challenge 10 LD50", "result": "Yes"},
      {"measurement": "antiviral activity", "setting": "[2]", "result": "Yes"}
    ]},
    {"smiles": "O=C(CCCN1CCOCC1)c1ccc2oc3ccc(C(=O)CCCN4CCOCC4)cc3c2c1", "note": "[Example 30, 2,8-bis-(4-morpholinobutyryl)dibenzofuran]", "values": [
      {"measurement": "antiviral activity", "setting": "[2]", "result": "Yes"}
    ]},
    {"smiles": "CCN(CC)CC(=O)c1ccc2oc3ccc(C(=O)CN(CC)CC)cc3c2c1", "note": "[Example 33, 2,8-bis-[2-(diethylamino)acetyl]dibenzofuran dihydrochloride hemihydrate]", "values": [
      {"measurement": "antiviral activity", "setting": "Proph. & Therap., 50 mg/kg subcutaneous, 28,22,2 hrs. pre- and 2 hrs. post-challenge, challenge 12 LD50", "result": "Yes"},
      {"measurement": "antiviral activity", "setting": "prophylactic, 250 mg/kg oral, 22 hrs. pre-challenge, challenge 12 LD50", "result": "Yes"}
    ]}
  ]
}
